Data reported in patent US11419852B2, “Beta-lactam compounds or salts thereof for use in long-acting prevention or treatment of a glucose metabolism disorder” (GLYCOLYSIS BIOMED CO., LTD., priority 2019, dated 2022).
Marks after values point to notes of the source that are not given here.

Test system: db/db mice
Experiment: Oral glucose tolerance test (OGTT)
Assay type: in vivo
Design: OGTT AUC: unit not given here
Description: Four to five weeks old db/db mice (BKS.Cg-Dock7^m+/+Lepr^db/JNarl) and m/m mice (BKS.Cg-Dock7^m+/Dock7^m+) were obtained from National Laboratory Animal Center ([…], Taiwan). […] PMI Nutrition International, Brentwood, Mo.) and water ad libitum. […] Blood was sampled from the tail vein, and FPG levels were measured and recorded as the basic blood glucose levels. […] The total area under the curve (AUC) in OGTT was plotted and calculated by the Area Under Coordinates Program (StatsToDo Server, Department of Obstetrics and Gynecology, Chinese University of Hong Kong).

C[C@@H](O)[C@H]1C(=O)N2C(C(=O)O)=C(S[C@@H]3CN[C@H](C(=O)Nc4cccc(C(=O)O)c4)C3)[C@H](C)[C@H]12 [DMH, ertapenem]
OGTT AUC vs untreated mice (DB group) (Ex 1, week 3, P<0.05): significantly smaller
Glucose concentration in OGTT vs DB group (Ex 1, week 3, time points of 90 min and 120 min (FIG. 1)): significantly lower
OGTT AUC (Ex 1: db/db mice, ertapenem i.p. 0.41 mg/g bw/day, 3 weeks): 1298 ± 186
OGTT AUCs vs metformin-treated (G3) and untreated db/db mice (G2) (Ex 2, G4 and G5, weeks 6, 12, and 16, P<0.05): significantly smaller
Oral glucose tolerance of db/db mice after stop (Ex 2, after the treatment had been stopped for 10 weeks): effectively increased
Oral glucose tolerance (OGT) of db/db mice (Ex 2, most time points (ertapenem: weeks 6 and 12)): significantly increased
Level of OGTT (blood glucose) (Ex 2 G4 db/db, DMH i.p. 0.1 mg/g bw/day, dosing 6 weeks, Week 6, 0 min): 219 ± 36 mg/dL
Level of OGTT (blood glucose) (Ex 2 G4 db/db, DMH i.p. 0.1 mg/g bw/day, dosing 6 weeks, Week 6, 15 min): 866 ± 38^bc
Level of OGTT (blood glucose) (Ex 2 G4 db/db, DMH i.p. 0.1 mg/g bw/day, dosing 6 weeks, Week 6, 30 min): 671 ± 62 mg/dL
Level of OGTT (blood glucose) (Ex 2 G4 db/db, DMH i.p. 0.1 mg/g bw/day, dosing 6 weeks, Week 6, 60 min): 486 ± 57 mg/dL
Level of OGTT (blood glucose) (Ex 2 G4 db/db, DMH i.p. 0.1 mg/g bw/day, dosing 6 weeks, Week 6, 120 min): 286 ± 44^bc
Level of OGTT (blood glucose) (Ex 2 G4 db/db, DMH i.p. 0.1 mg/g bw/day, dosing 6 weeks, Week 12, 0 min): 154 ± 30^ab
Level of OGTT (blood glucose) (Ex 2 G4 db/db, DMH i.p. 0.1 mg/g bw/day, dosing 6 weeks, Week 12, 15 min): 866 ± 36 mg/dL
Level of OGTT (blood glucose) (Ex 2 G4 db/db, DMH i.p. 0.1 mg/g bw/day, dosing 6 weeks, Week 12, 30 min): 794 ± 60^bc
Level of OGTT (blood glucose) (Ex 2 G4 db/db, DMH i.p. 0.1 mg/g bw/day, dosing 6 weeks, Week 12, 60 min): 503 ± 67 mg/dL
Level of OGTT (blood glucose) (Ex 2 G4 db/db, DMH i.p. 0.1 mg/g bw/day, dosing 6 weeks, Week 12, 120 min): 372 ± 83 mg/dL
Level of OGTT (blood glucose) (Ex 2 G4 db/db, DMH i.p. 0.1 mg/g bw/day, dosing 6 weeks, Week 16, 0 min): 126 ± 43^ab
Level of OGTT (blood glucose) (Ex 2 G4 db/db, DMH i.p. 0.1 mg/g bw/day, dosing 6 weeks, Week 16, 15 min): 575 ± 44 mg/dL
Level of OGTT (blood glucose) (Ex 2 G4 db/db, DMH i.p. 0.1 mg/g bw/day, dosing 6 weeks, Week 16, 30 min): 609 ± 39^c
Level of OGTT (blood glucose) (Ex 2 G4 db/db, DMH i.p. 0.1 mg/g bw/day, dosing 6 weeks, Week 16, 60 min): 506 ± 52^c
Level of OGTT (blood glucose) (Ex 2 G4 db/db, DMH i.p. 0.1 mg/g bw/day, dosing 6 weeks, Week 16, 120 min): 270 ± 65^bd
Level of OGTT (blood glucose) (Ex 2 G4 db/db, DMH i.p. 0.1 mg/g bw/day, dosing 6 weeks, Week 18, 0 min): 263 ± 58 mg/dL
Level of OGTT (blood glucose) (Ex 2 G4 db/db, DMH i.p. 0.1 mg/g bw/day, dosing 6 weeks, Week 18, 15 min): 785 ± 57 mg/dL
Level of OGTT (blood glucose) (Ex 2 G4 db/db, DMH i.p. 0.1 mg/g bw/day, dosing 6 weeks, Week 18, 30 min): 894 ± 49 mg/dL
Level of OGTT (blood glucose) (Ex 2 G4 db/db, DMH i.p. 0.1 mg/g bw/day, dosing 6 weeks, Week 18, 60 min): 735 ± 47 mg/dL
Level of OGTT (blood glucose) (Ex 2 G4 db/db, DMH i.p. 0.1 mg/g bw/day, dosing 6 weeks, Week 18, 120 min): 447 ± 53 mg/dL
OGTT AUC (Ex 2 G4 db/db, DMH i.p. 0.1 mg/g bw/day, dosing 6 weeks, week 6): 1033 ± 87^b
OGTT AUC (Ex 2 G4 db/db, DMH i.p. 0.1 mg/g bw/day, dosing 6 weeks, week 12): 1096 ± 119^b
OGTT AUC (Ex 2 G4 db/db, DMH i.p. 0.1 mg/g bw/day, dosing 6 weeks, week 16): 902 ± 85^b
OGTT AUC (Ex 2 G4 db/db, DMH i.p. 0.1 mg/g bw/day, dosing 6 weeks, week 18): 1339 ± 80^b
Level of OGTT (blood glucose) (Ex 2 G5 db/db, DMH i.p. 0.2 mg/g bw/day, dosing 6 weeks, Week 6, 0 min): 166 ± 21 mg/dL
Level of OGTT (blood glucose) (Ex 2 G5 db/db, DMH i.p. 0.2 mg/g bw/day, dosing 6 weeks, Week 6, 15 min): 750 ± 57 mg/dL
Level of OGTT (blood glucose) (Ex 2 G5 db/db, DMH i.p. 0.2 mg/g bw/day, dosing 6 weeks, Week 6, 30 min): 618 ± 68 mg/dL
Level of OGTT (blood glucose) (Ex 2 G5 db/db, DMH i.p. 0.2 mg/g bw/day, dosing 6 weeks, Week 6, 60 min): 425 ± 63 mg/dL
Level of OGTT (blood glucose) (Ex 2 G5 db/db, DMH i.p. 0.2 mg/g bw/day, dosing 6 weeks, Week 6, 120 min): 316 ± 92^bc
Level of OGTT (blood glucose) (Ex 2 G5 db/db, DMH i.p. 0.2 mg/g bw/day, dosing 6 weeks, Week 12, 0 min): 191 ± 42^bc
Level of OGTT (blood glucose) (Ex 2 G5 db/db, DMH i.p. 0.2 mg/g bw/day, dosing 6 weeks, Week 12, 15 min): 879 ± 45 mg/dL
Level of OGTT (blood glucose) (Ex 2 G5 db/db, DMH i.p. 0.2 mg/g bw/day, dosing 6 weeks, Week 12, 30 min): 790 ± 40^bc
Level of OGTT (blood glucose) (Ex 2 G5 db/db, DMH i.p. 0.2 mg/g bw/day, dosing 6 weeks, Week 12, 60 min): 548 ± 69 mg/dL
Level of OGTT (blood glucose) (Ex 2 G5 db/db, DMH i.p. 0.2 mg/g bw/day, dosing 6 weeks, Week 12, 120 min): 440 ± 81^bc
Level of OGTT (blood glucose) (Ex 2 G5 db/db, DMH i.p. 0.2 mg/g bw/day, dosing 6 weeks, Week 16, 0 min): 154 ± 56^ab
Level of OGTT (blood glucose) (Ex 2 G5 db/db, DMH i.p. 0.2 mg/g bw/day, dosing 6 weeks, Week 16, 15 min): 619 ± 48 mg/dL
Level of OGTT (blood glucose) (Ex 2 G5 db/db, DMH i.p. 0.2 mg/g bw/day, dosing 6 weeks, Week 16, 30 min): 686 ± 34^bc
Level of OGTT (blood glucose) (Ex 2 G5 db/db, DMH i.p. 0.2 mg/g bw/day, dosing 6 weeks, Week 16, 60 min): 551 ± 52^bc
Level of OGTT (blood glucose) (Ex 2 G5 db/db, DMH i.p. 0.2 mg/g bw/day, dosing 6 weeks, Week 16, 120 min): 314 ± 54^bc
Level of OGTT (blood glucose) (Ex 2 G5 db/db, DMH i.p. 0.2 mg/g bw/day, dosing 6 weeks, Week 18, 0 min): 308 ± 51 mg/dL
Level of OGTT (blood glucose) (Ex 2 G5 db/db, DMH i.p. 0.2 mg/g bw/day, dosing 6 weeks, Week 18, 15 min): 943 ± 43 mg/dL
Level of OGTT (blood glucose) (Ex 2 G5 db/db, DMH i.p. 0.2 mg/g bw/day, dosing 6 weeks, Week 18, 30 min): 941 ± 53 mg/dL
Level of OGTT (blood glucose) (Ex 2 G5 db/db, DMH i.p. 0.2 mg/g bw/day, dosing 6 weeks, Week 18, 60 min): 753 ± 70 mg/dL
Level of OGTT (blood glucose) (Ex 2 G5 db/db, DMH i.p. 0.2 mg/g bw/day, dosing 6 weeks, Week 18, 120 min): 541 ± 63^bc
OGTT AUC (Ex 2 G5 db/db, DMH i.p. 0.2 mg/g bw/day, dosing 6 weeks, week 6): 916 ± 110^b
OGTT AUC (Ex 2 G5 db/db, DMH i.p. 0.2 mg/g bw/day, dosing 6 weeks, week 12): 1171 ± 117^bc
OGTT AUC (Ex 2 G5 db/db, DMH i.p. 0.2 mg/g bw/day, dosing 6 weeks, week 16): 1002 ± 88^bc
OGTT AUC (Ex 2 G5 db/db, DMH i.p. 0.2 mg/g bw/day, dosing 6 weeks, week 18): 1462 ± 104^b
Level of OGTT (blood glucose) (Ex 2 G6 db/db, DMH i.p. 0.4 mg/g bw/day, dosing 6 weeks, Week 6, 0 min): 175 ± 30 mg/dL
Level of OGTT (blood glucose) (Ex 2 G6 db/db, DMH i.p. 0.4 mg/g bw/day, dosing 6 weeks, Week 6, 15 min): 747 ± 38 mg/dL
Level of OGTT (blood glucose) (Ex 2 G6 db/db, DMH i.p. 0.4 mg/g bw/day, dosing 6 weeks, Week 6, 30 min): 669 ± 69 mg/dL
Level of OGTT (blood glucose) (Ex 2 G6 db/db, DMH i.p. 0.4 mg/g bw/day, dosing 6 weeks, Week 6, 60 min): 418 ± 56 mg/dL
Level of OGTT (blood glucose) (Ex 2 G6 db/db, DMH i.p. 0.4 mg/g bw/day, dosing 6 weeks, Week 6, 120 min): 223 ± 27^ab
Level of OGTT (blood glucose) (Ex 2 G6 db/db, DMH i.p. 0.4 mg/g bw/day, dosing 6 weeks, Week 12, 0 min): 166 ± 26^ac
Level of OGTT (blood glucose) (Ex 2 G6 db/db, DMH i.p. 0.4 mg/g bw/day, dosing 6 weeks, Week 12, 15 min): 859 ± 50 mg/dL
Level of OGTT (blood glucose) (Ex 2 G6 db/db, DMH i.p. 0.4 mg/g bw/day, dosing 6 weeks, Week 12, 30 min): 698 ± 65 mg/dL
Level of OGTT (blood glucose) (Ex 2 G6 db/db, DMH i.p. 0.4 mg/g bw/day, dosing 6 weeks, Week 12, 60 min): 489 ± 55 mg/dL
Level of OGTT (blood glucose) (Ex 2 G6 db/db, DMH i.p. 0.4 mg/g bw/day, dosing 6 weeks, Week 12, 120 min): 324 ± 47 mg/dL
Level of OGTT (blood glucose) (Ex 2 G6 db/db, DMH i.p. 0.4 mg/g bw/day, dosing 6 weeks, Week 16, 0 min): 108 ± 22^ab
Level of OGTT (blood glucose) (Ex 2 G6 db/db, DMH i.p. 0.4 mg/g bw/day, dosing 6 weeks, Week 16, 15 min): 543 ± 57 mg/dL
Level of OGTT (blood glucose) (Ex 2 G6 db/db, DMH i.p. 0.4 mg/g bw/day, dosing 6 weeks, Week 16, 30 min): 650 ± 29^bc
Level of OGTT (blood glucose) (Ex 2 G6 db/db, DMH i.p. 0.4 mg/g bw/day, dosing 6 weeks, Week 16, 60 min): 535 ± 43^bc
Level of OGTT (blood glucose) (Ex 2 G6 db/db, DMH i.p. 0.4 mg/g bw/day, dosing 6 weeks, Week 16, 120 min): 244 ± 35^ab
Level of OGTT (blood glucose) (Ex 2 G6 db/db, DMH i.p. 0.4 mg/g bw/day, dosing 6 weeks, Week 18, 0 min): 266 ± 35 mg/dL
Level of OGTT (blood glucose) (Ex 2 G6 db/db, DMH i.p. 0.4 mg/g bw/day, dosing 6 weeks, Week 18, 15 min): 872 ± 46 mg/dL
Level of OGTT (blood glucose) (Ex 2 G6 db/db, DMH i.p. 0.4 mg/g bw/day, dosing 6 weeks, Week 18, 30 min): 860 ± 58 mg/dL
Level of OGTT (blood glucose) (Ex 2 G6 db/db, DMH i.p. 0.4 mg/g bw/day, dosing 6 weeks, Week 18, 60 min): 637 ± 64 mg/dL
Level of OGTT (blood glucose) (Ex 2 G6 db/db, DMH i.p. 0.4 mg/g bw/day, dosing 6 weeks, Week 18, 120 min): 480 ± 73 mg/dL
OGTT AUC (Ex 2 G6 db/db, DMH i.p. 0.4 mg/g bw/day, dosing 6 weeks, week 6): 884 ± 84^b
OGTT AUC (Ex 2 G6 db/db, DMH i.p. 0.4 mg/g bw/day, dosing 6 weeks, week 12): 1026 ± 94^b
OGTT AUC (Ex 2 G6 db/db, DMH i.p. 0.4 mg/g bw/day, dosing 6 weeks, week 16): 916 ± 68^b
OGTT AUC (Ex 2 G6 db/db, DMH i.p. 0.4 mg/g bw/day, dosing 6 weeks, week 18): 1291 ± 118^b
Regulation of blood glucose homeostasis (OGTT glucose vs G8) (Ex 3, medications stopped for at least 3 weeks (FIG. 6A, 6B)): still effective
OGTT AUC (Ex 3: db/db mice, daily dosing 3 weeks at doses of Table 10, Week 6 (stopped for 3 weeks)): 1263 ± 135^b
OGTT AUC (Ex 3: db/db mice, daily dosing 3 weeks at doses of Table 10, Week 9 (stopped for 6 weeks)): 1356 ± 149^bc
